Assay results as given in the supplement of paper PMC11451515.

Experiments:
P12-Ichikawa = assay: cell viability relative to DMSO control; higher = less cytotoxic; conditions: 48 h
Procedure, shortened: (§1)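 Library compounds in DMSO were pin-dosed in an 11-point threefold series (47 μM to 0.79 nM) onto leukemia cells in 1536-well plates (5 μl). Plates held 500 cells/well of NOMO1 or SEM or 1000 cells/well of P12-Ichikawa, each adapted for at least four passages in each medium. Luminescence was read with CellTiter-Glo One after 48 h at 37°C. Viability means the per-plate percentage relative to DMSO wells, using cell-free wells as background.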

NOMO1 = assay: as above; conditions: 48 h
Procedure, shortened: as §1

CN(CC#C)C/C1=C/C2=CC=CC=C2OC3=CC=CC=C13
cell viability [%]
Conditions	HPLM + 10% dialyzed FBS	RPMI 5 mM glucose + 10% FBS	RPMI 5 mM glucose + 10% dialyzed FBS
NOMO1, 0.000781 µM	82.4	81.3	89.1
NOMO1, 0.00234 µM	98.5	85.1	81.7
NOMO1, 0.00702 µM	91.5	82.2	83.8
NOMO1, 0.0211 µM	89.2	94.4	87
NOMO1, 0.0632 µM	98.9	86.3	91.5
NOMO1, 0.19 µM	91.2	77.5	78.4
NOMO1, 0.569 µM	85.2	92.6	81.1
NOMO1, 1.71 µM	70.4	81.3	84.4
NOMO1, 5.12 µM	82.3	80	93.6
NOMO1, 15.4 µM	65.1	85.1	87.1
NOMO1, 46.1 µM	64	75.5	80.6
P12-Ichikawa, 0.000781 µM	–	–	83.3
P12-Ichikawa, 0.00234 µM	–	–	81
P12-Ichikawa, 0.00702 µM	–	88.2	89.8
P12-Ichikawa, 0.0211 µM	–	91.2	87.8
P12-Ichikawa, 0.0632 µM	–	92.6	88
P12-Ichikawa, 0.19 µM	–	84.7	87.9
P12-Ichikawa, 0.569 µM	–	76.5	88.4
P12-Ichikawa, 1.71 µM	–	83.3	76.5
P12-Ichikawa, 5.12 µM	–	78.4	77.2
P12-Ichikawa, 15.4 µM	–	83.1	82
P12-Ichikawa, 46.1 µM	–	82	78.4
